The subject of data set [1] is human neuroblastoma cell lines SH-SY5Y treated with 1-methyl-4-phenylpyridinium (MPP+). The data set can be described thus: Improvement of mitochondrial dysfunction in MPP+-treated SH-SY5Y cells (mitochondrial oxidation reduction activity, Alamar Blue). The format is cell-based. The note with it: 1.5 mM MPP+, relative to cells in DMSO alone = 100%, read-out: Fluorescence Intensity (%); for activity at 0.01 µg/mL: test compound 0.01 μg/ml; for activity at 0.03 µg/mL: test compound 0.03 μg/ml; for activity at 0.1 µg/mL: test compound 0.1 μg/ml; for activity at 0.3 µg/mL: test compound 0.3 μg/ml; for activity at 1 µg/mL: test compound 1 μg/ml. As to the method: Evaluation of the Improvement of Mitochondrial Dysfunction Using Human Neuroblastoma Cell Lines SH-SY5Y Treated with 1-methyl-4-phenylpyridinium (MPP^+)
In human neuroblastoma cell lines SH-SY5Y in which mitochondrial activity was injured by MPP^+ treatment (Bollimuntha S. et al., J Biol Chem, 280, 2132-2140 (2005) and Shang T. et al., J Biol Chem, 280, 34644-34653 (2005)), the improvement of mitochondrial dysfunction was evaluated on the basis of measurement values for mitochondrial oxidation reduction activity using Alamar Blue fluorescent dye after the compound addition (Nakai M. et al, Exp Neurol, 179, 103-110 (2003)).
The human neuroblastoma cell lines SH-SY5Y were cultured in Dulbecco's Modified Eagle's Medium containing 10% fetal bovine serum (DMEM containing 50 units/ml penicillin and 50 μg/ml streptomycin as antibiotics) at 37° C. in the presence of 5% carbon dioxide. Cells were scattered on a poly-D-lysine-coated 96-well black plate at a concentration of 3−6×10^4 cells/cm^2 (medium amount: 100 μl/well), and cultured in the above medium for two days. Further, the medium was changed to DMEM containing a 1% N2 supplement (N2-DMEM) or to a medium (100 μl/well) in which 1.5 mM MPP^+ was dissolved. The cells were cultured therein for 39 to 48 hours, and then subjected to a mitochondrial oxidation reduction activity measurement system. A sample compound that had been previously dissolved in dimethyl sulfoxide (DMSO) was diluted with N2-DMEM, and added in a volume of 10 μl/well 24 hours before the activity measurement (final compound concentration: 0.01 to 1 μg/ml).
After removal of the medium by suction, a balanced salt solution containing 10% Alamar Blue (154 mM sodium chloride, 5.6 mM potassium chloride, 2.3 mM calcium chloride, 1.0 mM magnesium chloride, 3.6 mM sodium bicarbonate, 5 mM glucose, 5 mM HEPES, pH 7.2) was added in a volume of 100 μl/well, and reacted in an incubator at 37° C. for 1 hour. The fluorescent intensity was detected using a fluorescence detector (a product of Hamamatsu Photonics K.K., excitation wavelength 530 nm, measurement wavelength 580 nm) to thereby measure the mitochondrial oxidation reduction activity.
The fluorescent intensity of the well of the cells cultured in a medium containing MPP^+ and in each of the sample compounds was relatively evaluated based on the 100% fluorescent intensity of the well of the cells cultured in a medium containing DMSO alone (final concentration: 0.1%).

Where a name gives a salt, the structure may show the parent alone.

The melting point is the temperature of the solid-liquid transition. Compound `CCCOc1cc2ccccc2c2c(=O)c(-c3ccc(OC)cc3)c[nH]c12` returned a melting point of 172 to 174 °C.
Same read-out and setting: with `CCCOc1ccc(F)c2c(=O)c(-c3ccc(OC)cc3)cn(CCN3CCOCC3)c12` the figure was 206 to 208 °C.
In turn, `CCCOc1ccc(F)c2c(=O)c(-c3ccc(OC)cc3)cn(CCC(=O)OCCN3CCN(C)CC3)c12.Cl.Cl` returned a melting point of 150 to 152 °C.
The same measure, in the same setting: under `CCCOc1ccc(F)c2c(=O)c(-c3ccc(OC)cc3)cn(CCS(=O)(=O)CCCN3CCN(C)CC3)c12.Cl.Cl` stands 72 to 74 °C; under `CCCOc1ccc(F)c2c(=O)c(-c3ccc(OC)cc3)c(CN3CCN(c4ccccn4)CC3)[nH]c12`, 211 to 212 °C.
Still for that read-out and setting: under `CCCOc1cc2c(c3c(=O)c(-c4ccc(OC)cc4)cn(CCCN4CCOCC4)c13)CCC2` stands 135 to 137 °C; under `CCCOc1cc2ccccc2c2c(=O)c(-c3ccoc3)c[nH]c12`, 252 to 254 °C; under `CCCOc1ccc(F)c2c(=O)c(-c3ccc(Cl)cc3Cl)cn(COP(=O)([O-])[O-])c12.[Na+].[Na+]`, 208 to 210 °C.
`CCCOc1ccc(F)c2c(=O)c(-c3ccc(OC)cc3)cn(COC(=O)c3ccc(OP(=O)([O-])[O-])cc3)c12.[Na+].[Na+]` displayed a melting point of 205 to 207 °C.
Compound `CCCOc1cc2ccccc2c2c(=O)c(-c3ccoc3)cn(C)c12` showed a melting point of 165 to 167 °C.
The same measure, in the same setting: under `CCCOc1cc2c(c3c(=O)c(-c4ccc(OC)cc4)cn(CC(=O)NCCN4CCOCC4)c13)OCCC2` stands 201 to 203 °C; under `CCCOc1ccc(F)c2c(=O)c(-c3ccc(OC)cc3)cn(CC(=O)NCCN3CCOCC3)c12`, 139 to 141 °C.
Same read-out and setting: under `CCCOc1ccc(F)c2c(=O)c(-c3ccc(OC)cc3)cn(CC(=O)N(C)CCN3CCOCC3)c12` stands 218 to 220 °C; under `CCCOc1ccc(F)c2c(=O)c(-c3ccc(OC)cc3)cn(CC(=O)NC3CCNCC3)c12`, 226 to 228 °C; under `CCCOc1cc2ccccc2c2c(=O)c(-c3ccc(OC)cc3)c(C)[nH]c12`, 204 to 206 °C.
In the case of `CCCOc1cc2ccccc2c2c(=O)c(-c3ccsc3)cn(C)c12` [Example 7, 4-methyl-5-propoxy-2-thiophen-3-yl-4H-benzo[f]quinolin-1-one], in data set [1], the activity at 0.01 µg/mL was found to be 66%, the activity at 0.03 µg/mL turned out to be 71%, the activity at 0.1 µg/mL worked out at 78% and the activity at 0.3 µg/mL amounted to 80%. Moreover, in data set [1], the activity at 1 µg/mL is 75%.
Regarding `CCCOc1cc2c(c3c(=O)c(-c4ccsc4)c[nH]c13)CCC2` [Example 12, 5-propoxy-8-thiophen-3-yl-1,2,3,6-tetrahydro-6-aza-cyclopenta[a]naphthalen-9-one], in data set [1], the activity at 0.01 µg/mL worked out at 80%, the activity at 0.03 µg/mL came to 74%, the activity at 0.1 µg/mL was 83% and the activity at 0.3 µg/mL came out at 82%. Also, in data set [1], the activity at 1 µg/mL was found to be 68%.
In the case of `CCCOc1cc2c(c3c(=O)c(-c4ccc(OC)cc4)cn(COP(=O)(O)O)c13)OCCC2` [Example 36, [3-(4-methoxyphenyl)-4-oxo-10-propoxy-7,8-dihydro-4H,6H-5-oxa-1-aza-phenanthren-1-ylmethyl]monophosphate disodium salt], in data set [1], the activity at 0.01 µg/mL was 69%, the activity at 0.03 µg/mL turned out to be 67%, the activity at 0.1 µg/mL was 86% and the activity at 0.3 µg/mL stood at 90%. The activity at 1 µg/mL in data set [1] was determined as 89%.
The corresponding values for `CCCOc1cc2c(c3c(=O)c(-c4ccc(OC)cc4)c(C)[nH]c13)OCC2` [Example 48, 8-(4-methoxyphenyl)-7-methyl-5-propoxy-3,6-dihydro-2H-flo[2,3-f]quinolin-9-one] are 60%, 81%, 92%, 93% and 80%.
As to `COc1ccc(-c2c[nH]c3c4c(cc(C)c3c2=O)CCO4)cc1` [Example 57, 7-(4-methoxyphenyl)-5-methyl-2,3-dihydro-9H-flo[3,2-h]quinolin-6-one], in data set [1], the activity at 0.01 µg/mL was 64%, the activity at 0.03 µg/mL worked out at 65%, the activity at 0.1 µg/mL is 68% and the activity at 0.3 µg/mL stood at 74%. In addition, the activity at 1 µg/mL in data set [1] amounted to 65%.
Regarding `CCCOc1cc2cnccc2c2c(=O)c(-c3ccc(OC)cc3)cn(CC(=O)NCCN3CCOCC3)c12` [Example 69, 2-[9-(4-methoxyphenyl)-10-oxo-6-propoxy-10H-[3,7]phenanthrolin-7-yl]-N-(2-morpholin-4-ylethyl)acetamide], in data set [1], the activity at 0.01 µg/mL was 78%, the activity at 0.03 µg/mL came out at 64%, the activity at 0.1 µg/mL worked out at 68% and the activity at 0.3 µg/mL stood at 67%. Further, in data set [1], the activity at 1 µg/mL was 65%.
With `COc1ccc(-c2c[nH]c3c(OCC(=O)NCCN4CCOCC4)ccc(F)c3c2=O)cc1` [Example 139, 2-[5-fluoro-3-(4-methoxyphenyl)-4-oxo-1,4-dihydro-quinolin-8-yloxy]-N-(2-morpholin-4-ylethyl)acetamide], in data set [1], the activity at 0.01 µg/mL turned out to be 53%, the activity at 0.03 µg/mL turned out to be 58%, the activity at 0.1 µg/mL was 57% and the activity at 0.3 µg/mL came to 60%. Moreover, the activity at 1 µg/mL in data set [1] worked out at 55%.
The corresponding values for `CCCOc1ccc(F)c2c(=O)c(-c3ccc(C(=O)N4CCC(N5CCOCC5)CC4)cc3)c[nH]c12` [Example 163, 5-fluoro-3-[4-(4-morpholin-4-yl-piperidine-1-carbonyl)phenyl]-8-propoxy-1H-quinolin-4-one] are 61%, 61%, 63%, 60% and 63%.
For `CCCOc1ccc(F)c2c(=O)c(-c3ccc(OC)cc3)c(C(=O)NCCN3CCOCC3)[nH]c12` [Example 171, 5-fluoro-3-(4-methoxyphenyl)-4-oxo-8-propoxy-1,4-dihydroquinoline-2-carboxy-[2-(morpholin-4-yl)ethyl]amide], in data set [1], the activity at 0.01 µg/mL was 61%, the activity at 0.03 µg/mL stood at 61%, the activity at 0.1 µg/mL worked out at 65% and the activity at 0.3 µg/mL stood at 67%. Moreover, the activity at 1 µg/mL in data set [1] was determined as 68%.
In the case of `CCCOc1ccc(F)c2c(=O)c(-c3ccc(OC)cc3)cn(COP(=O)(O)O)c12` [Example 212, [5-fluoro-3-(4-methoxyphenyl)-4-oxo-8-propoxy-4H-quinolin-1-ylmethyl]monophosphate disodium salt], in data set [1], the activity at 0.01 µg/mL was 46%, the activity at 0.03 µg/mL came out at 62%, the activity at 0.1 µg/mL came to 63% and the activity at 0.3 µg/mL worked out at 70%. Besides, in data set [1], the activity at 1 µg/mL worked out at 72%.
On the same counts, the results for `CCCOc1ccc(F)c2c(=O)c(-c3cnn(C)c3)cn(COP(=O)(O)O)c12` [Example 222, [5-fluoro-3-(1-methyl-1H-pyrazol-4-yl)-4-oxo-8-propoxy-4H-quinolin-1-ylmethyl]monophosphate disodium salt] are 59%, 64%, 66%, 62% and 73%.

For the origin of these results see US9018229B2, “Quinolone compound and pharmaceutical composition” (Otsuka Pharmaceutical Co., Ltd., priority 2008, dated 2015).
